Measurements: patent US8987195B2 (priority 2012, dated 2015)
Read-outs that look alike come from different tables or passages of the source.

Tests used:
[1] = system: HCV genotype 1b replicon; assay: HCV replicon assay, genotype 1b replicon EC50; format: cell-based, Hepatitis C virus; conditions: genotype 1b replicon, read-out: EC50 [gt-1b]
Procedure, shortened: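 Assay format: compound titration on stable replicon cells, no G418 during treatment, 24 to 48 hours. Lysates were assayed for replicon RNA (hybridization/protection or TaqMan) or luciferase; EC50 fitted to four parameters against DMSO.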

[2] = biological target: HCV NS3/4A protease genotype 1b (Hepatitis C virus genotype 1b, UniProt P26663); assay: HCV NS3/4A protease time-resolved fluorescence (TRF) assay, Ki against genotype 1b; format: biochemical; conditions: IC50 [gt-1b] (nM), NS3/4A genotype 1b, enzyme 0.2 nM
Procedure, shortened: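 First, protease (genotype 1b 0.2 nM, A156T 0.4 nM, genotype 3a 0.025 nM) is preincubated 30 min with inhibitor. Next, 25 nM TRF substrate starts the reaction, run 2.5 h at room temperature. Finally, europium fluorescence is read and Ki calculated from IC50.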

Cc1nc2cc(Cl)ccc2c2c1O[C@]1(CC2)C[C@H]2C(=O)N[C@]3(C(=O)NS(=O)(=O)C4(C)CC4)C[C@H]3/C=C\CCCCC[C@H](NC(=O)OC3CCC3)C(=O)N2C1 [Example 239, cyclobutyl [(2R,6S,12Z,13aS,14aR,16aS)-8′-chloro-5′-methyl-14a-{[(1-methylcyclopropyl)sulfonyl]carbamoyl}-5,16-dioxo-1,1′,2′,5,6,7,8,9,10,11,13a,14,14a,15,16,16a-hexadecahydrospiro[cyclopropa[e]pyrrolo[1,2-a][1,4]diazacyclopentadecine-2,3′-pyrano[2,3-c]quinolin]-6-yl]carbamate]
EC50 ([1]; Hepatitis C virus): 5.16 nM | IC50 [2]: 0.068 nM

Cc1nc2ccccc2c2c1O[C@]1(CC2)C[C@H]2C(=O)N[C@]3(C(=O)NS(=O)(=O)C4(C)CC4)C[C@H]3/C=C\CCCCC[C@H](NC(=O)OC(C)C(F)(F)F)C(=O)N2C1 (stereo partly drawn) [Example 241, 1,1,1-trifluoropropan-2-yl [(2R,6S,12Z,13aS,14aR,16aS)-5′-methyl-14a-{[(1-methylcyclopropyl)sulfonyl]carbamoyl}-5,16-dioxo-1,1′,2′,5,6,7,8,9,10,11,13a,14,14a,15,16,16a-hexadecahydrospiro[cyclopropa[e]pyrrolo[1,2-a][1,4]diazacyclopentadecine-2,3′-pyrano[2,3-c]quinolin]-6-yl]carbamate]
EC50 [1]: 2.9 nM | IC50 [2]: 0.012 nM

COc1ccc2c3c(c(C4CC4)nc2c1)O[C@]1(CC3)C[C@H]2C(=O)N[C@]3(C(=O)NS(=O)(=O)C4(C)CC4)C[C@H]3/C=C\CCCCC[C@H](NC(=O)NC(C)(C)C)C(=O)N2C1 [Example 132, (2R,6S,12Z,13aS,14aR,16aS)-6-[(tert-butylcarbamoyl)amino]-5′-cyclopropyl-8′-methoxy-N-[(1-methylcyclopropyl)sulfonyl]-5,16-dioxo-1,1′,2′,6,7,8,9,10,11,13a,14,15,16,16a-tetradecahydrospiro[cyclopropa[e]pyrrolo[1,2-a][1,4]diazacyclopentadecine-2,3′-pyrano[2,3-c]quinoline]-14a(5H)-carboxamide]
EC50 ([1]; Hepatitis C virus): 1.41 nM | IC50 [2]: 0.002 nM

COC(=O)N[C@H]1CCCCC/C=C\[C@@H]2C[C@@]2(C(=O)NS(=O)(=O)C2(C)CC2)NC(=O)[C@@H]2C[C@]3(CCc4c(c(-c5cccc(F)c5)nc5ccccc45)O3)CN2C1=O [Example 88, methyl [(2R,6S,12Z,13aS,14aR,16aS)-5′-(3-fluorophenyl)-14a-{[(1-methylcyclopropyl)sulfonyl]carbamoyl}-5,16-dioxo-1,1′,2′,5,6,7,8,9,10,11,13a,14,14a,15,16,16a-hexadecahydrospiro[cyclopropa[e]pyrrolo[1,2-a][1,4]diazacyclopentadecine-2,3′-pyrano[2,3-c]quinolin]-6-yl]carbamate]
EC50 ([1]; Hepatitis C virus): 0.582 nM | IC50 [2]: 0.202 nM

COc1ccc2nc(C(C)C)c3c(c2c1)CC[C@]1(C[C@H]2C(=O)N[C@]4(C(=O)NS(=O)(=O)C5(C)CC5)C[C@H]4/C=C\CCCCC[C@H](NC(=O)OCC4COC4)C(=O)N2C1)O3 [Example 178, oxetan-3-ylmethyl [(2R,6S,12Z,13aS,14aR,16aS)-9′-methoxy-14a-{[(1-methylcyclopropyl)sulfonyl]carbamoyl}-5,16-dioxo-5′-(propan-2-yl)-1,1′,2′,5,6,7,8,9,10,11,13a,14,14a,15,16,16a-hexadecahydrospiro[cyclopropa[e]pyrrolo[1,2-a][1,4]diazacyclopentadecine-2,3′-pyrano[2,3-c]quinolin]-6-yl]carbamate]
EC50 ([1]; Hepatitis C virus): 11.1 nM | IC50 [2]: 0.007 nM
